The test concerns Human immunodeficiency virus. In words: Antiviral activity against HIV. The format is functional, organism-based.

These results are taken from ChEMBL document CHEMBL1152691, “Design and synthesis of novel 2',3'-dideoxy-4'-selenonucleosides as potential antiviral agents” (Bioorg Med Chem, 2008).

Calls of active or inactive are those of the source. No cut-off for these calls is given here.

Consider `Cc1cn([C@H]2CC[C@@H](CO)[Se]2)c(=O)[nH]c1=O`, for which the outcome was inactive. Turning to `O=c1ccn([C@H]2CC[C@@H](CO)[Se]2)c(=O)[nH]1`, the result was inactive.

Turning to `Nc1ccn([C@H]2CC[C@@H](CO)[Se]2)c(=O)n1`, the result was inactive.
